From ChEMBL document CHEMBL4138123, “Design, synthesis and biological evaluation of novel pyrazolochalcones as potential modulators of PI3K/Akt/mTOR pathway and inducers of apoptosis in breast cancer cells” (Eur J Med Chem, 2017)

Experiments:
Format in all cases: functional
SNB-19 = experiment: Cytotoxicity against human SNB19 cells assessed as growth inhibition after 48 hrs by sulforhodamine B assay; settings: SNB-19, 48 h
U-251 [1] = experiment: Cytotoxicity against human U251 cells assessed as growth inhibition after 48 hrs by sulforhodamine B assay; settings: U-251, 48 h
LOX IMVI = experiment: Cytotoxicity against human LOXIMVI cells assessed as growth inhibition after 48 hrs by sulforhodamine B assay
UACC-257 [2] = experiment: Cytotoxicity against human UACC257 cells assessed as growth inhibition after 48 hrs by sulforhodamine B assay; settings: UACC-257, 48 h
OVCAR-4 [3] = experiment: Cytotoxicity against human OVCAR4 cells assessed as growth inhibition after 48 hrs by sulforhodamine B assay; settings: OVCAR-4, 48 h
RXF 393 [4] = experiment: Cytotoxicity against human RXF393 cells assessed as growth inhibition after 48 hrs by sulforhodamine B assay; settings: RXF 393, 48 h
DU-145 = experiment: Cytotoxicity against human DU145 cells assessed as growth inhibition after 48 hrs by sulforhodamine B assay; settings: DU-145, 48 h
Hs-578T [5] = experiment: Cytotoxicity against human Hs 578T cells assessed as growth inhibition after 48 hrs by sulforhodamine B assay
BT-549 [6] = experiment: Cytotoxicity against human BT549 cells assessed as growth inhibition after 48 hrs by sulforhodamine B assay; settings: BT-549, 48 h
ACHN = experiment: Cytotoxicity against human ACHN cells assessed as cell growth at 0.01 uM after 48 hrs by sulforhodamine B assay relative to control; settings: read-out: Activity
OVCAR-3 = experiment: Cytotoxicity against human OVCAR3 cells assessed as cell growth at 0.01 uM after 48 hrs by sulforhodamine B assay relative to control; settings: OVCAR-3, 48 h, read-out: Activity
UACC-257 [7] = experiment: Cytotoxicity against human UACC257 cells assessed as cell growth at 0.01 uM after 48 hrs by sulforhodamine B assay relative to control; settings: UACC-257, 48 h, read-out: Activity
NCI-H522 [8] = experiment: Cytotoxicity against human NCI-H522 cells assessed as cell growth at 0.01 uM after 48 hrs by sulforhodamine B assay relative to control; settings: NCI-H522, 48 h, read-out: Activity
HL-60(TB) = experiment: Cytotoxicity against human HL-60(TB) cells assessed as cell growth at 0.1 uM after 48 hrs by sulforhodamine B assay relative to control; settings: HL-60, 48 h, read-out: Activity
HCT-116 = experiment: Cytotoxicity against human HCT116 cells assessed as cell growth at 0.1 uM after 48 hrs by sulforhodamine B assay relative to control; settings: HCT-116, 48 h, read-out: Activity
SW-620 = experiment: Cytotoxicity against human SW620 cells assessed as cell growth at 0.1 uM after 48 hrs by sulforhodamine B assay relative to control; settings: SW-620, 48 h, read-out: Activity
U-251 [9] = experiment: Cytotoxicity against human U251 cells assessed as cell growth at 0.1 uM after 48 hrs by sulforhodamine B assay relative to control; settings: U-251, 48 h, read-out: Activity
Malme-3M = experiment: Cytotoxicity against human MALME-3M cells assessed as cell growth at 0.1 uM after 48 hrs by sulforhodamine B assay relative to control; settings: read-out: Activity
UACC-257 [10] = experiment: Cytotoxicity against human UACC257 cells assessed as cell growth at 0.1 uM after 48 hrs by sulforhodamine B assay relative to control; settings: UACC-257, 48 h, read-out: Activity
UACC-62 [11] = experiment: Cytotoxicity against human UACC62 cells assessed as cell growth at 0.1 uM after 48 hrs by sulforhodamine B assay relative to control; settings: UACC-62, 48 h, read-out: Activity
786-0 = experiment: Cytotoxicity against human 786-0 cells assessed as cell growth at 0.1 uM after 48 hrs by sulforhodamine B assay relative to control; settings: 786-0, 48 h, read-out: Activity
MCF7 [12] = experiment: Cytotoxicity against human MCF7 cells assessed as cell growth at 0.1 uM after 48 hrs by sulforhodamine B assay relative to control; settings: MCF7, 48 h, read-out: Activity
Hs-578T [13] = experiment: Cytotoxicity against human Hs 578T cells assessed as cell growth at 0.1 uM after 48 hrs by sulforhodamine B assay relative to control; settings: read-out: Activity
SF-268 = experiment: Cytotoxicity against human SF268 cells assessed as cell growth at 1 uM after 48 hrs by sulforhodamine B assay relative to control; settings: SF-268, 48 h, read-out: Activity
RXF 393 [14] = experiment: Cytotoxicity against human RXF393 cells assessed as cell growth at 1 uM after 48 hrs by sulforhodamine B assay relative to control; settings: RXF 393, 48 h, read-out: Activity
PC-3 [15] = experiment: Cytotoxicity against human PC3 cells assessed as cell growth at 1 uM after 48 hrs by sulforhodamine B assay relative to control; settings: PC-3, 48 h, read-out: Activity
NCI-H322M = experiment: Cytotoxicity against human NCI-H322M cells assessed as cell growth at 10 uM after 48 hrs by sulforhodamine B assay relative to control; settings: read-out: Activity
NCI-H522 [16] = experiment: Cytotoxicity against human NCI-H522 cells assessed as cell growth at 10 uM after 48 hrs by sulforhodamine B assay relative to control; settings: NCI-H522, 48 h, read-out: Activity
MDA-MB-435 [17] = experiment: Cytotoxicity against human MDA-MB-435 cells assessed as cell growth at 10 uM after 48 hrs by sulforhodamine B assay relative to control; settings: MDA-MB-435, 48 h, read-out: Activity
MCF7 [18] = experiment: Cytotoxicity against human MCF7 cells assessed as cell growth at 10 uM after 48 hrs by sulforhodamine B assay relative to control; settings: MCF7, 48 h, read-out: Activity
T47D = experiment: Cytotoxicity against human T47D cells assessed as cell growth at 10 uM after 48 hrs by sulforhodamine B assay relative to control; settings: read-out: Activity
MDA-MB-435 [19] = experiment: Cytotoxicity against human MDA-MB-435 cells assessed as cell growth at 100 uM after 48 hrs by sulforhodamine B assay relative to control; settings: MDA-MB-435, 48 h, read-out: Activity
UACC-62 [20] = experiment: Cytotoxicity against human UACC62 cells assessed as cell growth at 100 uM after 48 hrs by sulforhodamine B assay relative to control; settings: UACC-62, 48 h, read-out: Activity
OVCAR-4 [21] = experiment: Cytotoxicity against human OVCAR4 cells assessed as cell growth at 100 uM after 48 hrs by sulforhodamine B assay relative to control; settings: OVCAR-4, 48 h, read-out: Activity
PC-3 [22] = experiment: Cytotoxicity against human PC3 cells assessed as cell growth at 100 uM after 48 hrs by sulforhodamine B assay relative to control; settings: PC-3, 48 h, read-out: Activity
BT-549 [23] = experiment: Cytotoxicity against human BT549 cells assessed as cell growth at 100 uM after 48 hrs by sulforhodamine B assay relative to control; settings: BT-549, 48 h, read-out: Activity
[24] = read-out: LC50 (the source's name)

`COc1ccc(-c2cc(/C=C/C(=O)c3ccc(N)cc3)[nH]n2)cc1OC` showed a GI50 (SNB-19) of 4.36 µM, a TGI (SNB-19) of 18 µM and a CC50 (SNB-19; [24]) of 46.1 µM. For the same compound, the GI50 (U-251 [1]) was 1.74 µM, the LC50 (U-251 [1]) was 7.69 µM and the TGI (U-251 [1]) was 3.66 µM. It also gave a GI50 (LOX IMVI) of 1.92 µM, an LC50 (LOX IMVI) of 7.98 µM and a TGI (LOX IMVI) of 3.91 µM. For the same compound, the GI50 (UACC-257 [2]) was 6.46 µM, the LC50 (UACC-257 [2]) was 45.7 µM and the TGI (UACC-257 [2]) was 19.5 µM. For the same compound, the GI50 (OVCAR-4 [3]) was 2.68 µM, the LC50 (OVCAR-4 [3]) was 40.5 µM and the TGI (OVCAR-4 [3]) was 15.8 µM. It also gave a GI50 (RXF 393 [4]) of 2.15 µM, an LC50 (concentration killing 50% of cells) (RXF 393 [4]) of 15.9 µM and a TGI (RXF 393 [4]) of 5.12 µM. It also gave a GI50 (DU-145) of 3.74 µM, a TGI (DU-145) of 13.5 µM and a CC50 (DU-145; [24]) of 36.8 µM. It also gave a GI50 (Hs-578T [5]) of 6.57 µM, an LC50 (Hs-578T [5]) greater than 100 µM and a TGI (Hs-578T [5]) greater than 100 µM. It also gave a GI50 (BT-549 [6]) of 1.5 µM, an LC50 (concentration killing 50% of cells) (BT-549 [6]) of 5.77 µM and a TGI (BT-549 [6]) of 2.94 µM. It also gave a growth at 0.01 µM (ACHN) of 93%, a growth at 0.01 µM (OVCAR-3) of 106% and a growth at 0.01 µM (UACC-257 [7]) of 90%. It also gave a growth at 0.01 µM (NCI-H522 [8]) of 92%, a growth at 0.1 µM (HL-60(TB)) of 104% and a growth at 0.1 µM (HCT-116) of 101%. The growth at 0.1 µM (SW-620) was 97%, the growth at 0.1 µM (U-251 [9]) was 95% and the growth at 0.1 µM (Malme-3M) was 108%. The growth at 0.1 µM (UACC-257 [10]) was 90%, the growth at 0.1 µM (UACC-62 [11]) was 94% and the growth at 0.1 µM (786-0) was 95%. It also gave a growth at 0.1 µM (MCF7 [12]) of 89%, a growth at 0.1 µM (Hs-578T [13]) of 93% and a growth at 1 µM (SF-268) of 88%. The growth at 1 µM (RXF 393 [14]) was 94%, the growth at 1 µM (PC-3 [15]) was 89% and the growth at 10 µM (NCI-H322M) was 24%. For the same compound, the growth at 10 µM (NCI-H522 [16]) was -84%, the growth at 10 µM (MDA-MB-435 [17]) was -15% and the growth at 10 µM (MCF7 [18]) was -6%. The growth at 10 µM (T47D) was 28%, the growth at 100 µM (MDA-MB-435 [19]) was -72% and the growth at 100 µM (UACC-62 [20]) was -86%. The growth at 100 µM (OVCAR-4 [21]) was -98%, the growth at 100 µM (PC-3 [22]) was -48% and the growth at 100 µM (BT-549 [23]) was -98%.
